We go through one molecule from patent US20150329918A1, “JAGGED1 AS A MARKER AND THERAPEUTIC TARGET FOR BREAST CANCER BONE METASTASIS” (The Trustees of Princeton University, priority 2011, published 2015).

In assay [1] the test system is MDA231 sublines (SCP28 tumor cells). The assay is described as follows: Proliferation of tumor cells cultured alone. The format is cell-based, human.
The next assay deals with IL-6. The assay is described as follows: Murine IL-6 ELISA and qRT-PCR in osteoblast cocultures. The format is cell-based, mouse. As to conditions: JAG1 OE coculture with MC3T3-E1; FIGS. 13B, 13C, 13E. How it is done: Quantitative levels of murine IL-6 in the conditioned medium of cultured and cocultured cells were determined in triplicate by ELISA according to the manufacturer's protocol (Quantikine immunoassay kit, R&D systems).
RNA from in vitro cultured cells or flow cytometry-separated cells was collected in RLT lysis buffer and extracted with RNeasy mini kit (Qiagen). RNA extraction from in vivo tissue samples was performed using Trizol (Invitrogen) according to the manufacturer's protocol. cDNA synthesis of RNA was performed using Superscript III First-Strand (Invitrogen). Quantitative RT-PCR was performed using Power Syber Green PCR Master Mix (Applied Biosystems) with the ABI Prism 7900HT thermocycler (Applied Biosystems) according to the manufacturer's protocol. A standard curve for each gene was generated by serial dilutions of a standard. Values were then normalized by the amount of GAPDH or β-actin in each sample. For in vivo samples, species-specific primers were employed for gene expression analysis in the tumor compartment (human) versus stroma compartment (mouse).
On the technique in general: In an ELISA, binding on a coated surface is turned into a signal by an enzyme label.

Assay [2] concerns primary mammary tumors of MDA231 sublines. The assay is described as follows: Orthotopic primary mammary tumor xenograft. The note with it: mouse, in vivo. How it is done:
For bone metastsis studies, 10^5 tumor cells were injected into the left cardiac ventricle of anesthetized female athymic Ncr-nu/nu or BALB/c mice. Development of metastases was monitored by BLI. Bioluminescence images were acquired with a Xenogen IVIS 200 Imaging System. Analysis was performed with Living Image software by measuring photon flux in the hindlimbs of mice. Data were normalized to the signal on day 7. Bone metastasis-free survival curves represent the time point at which each mouse developed bone metastasis by threshold BLI signals in the hindlimbs. For the orthotopic xenograft model, mammary fat pad injections and primary tumor size measurements were performed following the procedure described previously (Minn et al., 2005, which is incorporated herein by reference as if fully set forth).
MRK-003 is a potent and specific gamma-secretase inhibitor whose biochemical, cellular and pharmacological properties have been extensively studied and reported. MRK-003 is a cyclic sulfamide with sub-nanomolar potency inhibiting gamma-secretase-mediated cleavage of Notch to its active form (NICD) (Lewis et al., 2007, which is incorporated herein by reference as if fully set forth). […] For xenograft experiments, mice were administered the vehicle (0.5% methylcellulose) or MRK-003 by oral gavage twice a week at a 100 mg/kg dosage. The dosing schedule was 2-days on, 5-days off. […]

For `O=S1(=O)N[C@@]2(CN1CC(F)(F)F)[C@@H]1CC[C@H]2Cc2ccc(/C=C/CN3CCC(C(F)(F)F)CC3)cc2C1` [MRK-003], the “proliferative ability of tumor cells cultured alone” value in assay [1] (JAG1 OE SCP28 without osteoblasts, FIGS. 9B-9C) is listed as “did not affect”. Besides, in assay [1] (relatively low concentrations sufficient to inhibit Notch in bone-specific cells), the “proliferation assays of MDA231 sublines, control vs treated” value is listed as “no difference”. Besides, in the assay with IL-6, the “IL-6 transcription and secretion from osteoblasts” value is given as “dependent on the Notch pathway”. Moreover, in assay [2], the “growth rate of primary mammary tumors” value is recorded as “not altered” and the “primary tumor xenografts of MDA231 sublines, control vs treated” value is on record as “no difference”.
